{"source": "patent US11446287B2", "about": "“Compounds and methods for EP300 or CBP modulation and indications therefor” (Opna Immuno-Oncology SA, priority 2019, dated 2022)"}
{"target": "T1, Recombinant human BRD4 containing dual bromodomains (BRD4-BD12 (1-477)) (Homo sapiens, UniProt O60885)", "T1 construct": "Recombinant human BRD4 containing dual bromodomains (BRD4-BD12 (1-477)); made in house; host or cells: E. coli BL21-CodonPlus (DE3), modified pET vector", "assay": "BRD4 Alphascreen binding assay", "how_it_was_run": "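AlphaScreen proximity between Ni-chelate-bound BRD4-BD12 (1-477) and streptavidin-captured H4 K5/K8/K12/K16-acetyl peptide measured after 1 h room-temperature compound incubation and 30 min with 7.5 μg/ml beads. Buffer: 50 mM HEPES pH 7.5, 50 mM NaCl, 0.01% BSA, 0.01% Triton X-100; data plate-normalized and four-parameter fit for IC50.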", "units": {"IC50": "µM"}}
{"smiles": "Cc1noc(C)c1-c1cnc2c(c1)c(-c1ccc(C(=O)O)cc1OC1CCC1)cn2[C@H]1CCOC1", "note": "[P-0350, (S)-3-cyclobutoxy-4-(5-(3,5-dimethylisoxazol-4-yl)-1-(tetrahydrofuran-3-yl)-1H-pyrrolo[2,3-b]pyridin-3-yl)benzoic acid]", "IC50": "8 to 1000"}
{"smiles": "Cc1nn(C(F)F)cc1-n1cc(-c2ccc(C(=O)O)cc2OC2CCC2)c2cc(-c3c(C)noc3C)cnc21", "note": "[P-0351, 3-cyclobutoxy-4-(1-(1-(difluoromethyl)-3-methyl-1H-pyrazol-4-yl)-5-(3,5-dimethylisoxazol-4-yl)-1H-pyrrolo[2,3-b]pyridin-3-yl)benzoic acid]", "IC50": "8 to 1000"}
{"smiles": "Cc1noc(C)c1-c1cnc2c(c1)c(-c1c(Cl)cc(C(=O)O)cc1OCC(F)F)cn2-c1cnn(C(F)F)c1C", "note": "[P-0352, 3-chloro-5-(2,2-difluoroethoxy)-4-(1-(1-(difluoromethyl)-5-methyl-1H-pyrazol-4-yl)-5-(3,5-dimethylisoxazol-4-yl)-1H-pyrrolo[2,3-b]pyridin-3-yl)benzoic acid]", "IC50": "1 to 8"}
{"smiles": "Cc1noc(C)c1-c1cnc2c(c1)c(-c1ccc(C(=O)O)cc1OC1CCC1)cn2-c1cnn(C(F)F)c1C", "note": "[P-0353, 3-cyclobutoxy-4-(1-(1-(difluoromethyl)-5-methyl-1H-pyrazol-4-yl)-5-(3,5-dimethylisoxazol-4-yl)-1H-pyrrolo[2,3-b]pyridin-3-yl)benzoic acid]", "IC50": "8 to 1000"}
{"smiles": "Cc1noc(C)c1-c1cnc2c(c1)c(-c1ccc(C(=O)O)cc1OC(C)C)cn2-c1cnn(C(F)F)c1C", "note": "[P-0354, 4-(1-(1-(difluoromethyl)-5-methyl-1H-pyrazol-4-yl)-5-(3,5-dimethylisoxazol-4-yl)-1H-pyrrolo[2,3-b]pyridin-3-yl)-3-isopropoxybenzoic acid]", "IC50": "8 to 1000"}
{"smiles": "Cc1noc(C)c1-c1cnc2c(c1)c(-c1c(Cl)cc(C(=O)O)cc1OC(F)(F)F)cn2C1CCOCC1", "note": "[P-0355, 3-chloro-4-(5-(3,5-dimethylisoxazol-4-yl)-1-(tetrahydro-2H-pyran-4-yl)-1H-pyrrolo[2,3-b]pyridin-3-yl)-5-(trifluoromethoxy)benzoic acid]", "IC50": "1 to 8"}
{"smiles": "Cc1noc(C)c1-c1cnc2c(c1)c(-c1c(Cl)cc(C(=O)O)cc1OC1CCC1)cn2C(C1CC1)C1CC1", "note": "[P-0356, 3-chloro-5-cyclobutoxy-4-(1-(dicyclopropylmethyl)-5-(3,5-dimethylisoxazol-4-yl)-1H-pyrrolo[2,3-b]pyridin-3-yl)benzoic acid]", "IC50": "1 to 8"}
{"smiles": "Cc1noc(C)c1-c1cnc2c(c1)c(-c1ccc(C(=O)O)cc1OC(C)C)cn2C1CCOCC1", "note": "[P-0357, 4-(5-(3,5-dimethylisoxazol-4-yl)-1-(tetrahydro-2H-pyran-4-yl)-1H-pyrrolo[2,3-b]pyridin-3-yl)-3-isopropoxybenzoic acid]", "IC50": "8 to 1000"}
{"smiles": "Cc1noc(C)c1-c1cnc2c(c1)c(-c1c(Cl)cc(C(=O)O)cc1OC1CCC1)cn2C1CCOCC1", "note": "[P-0358, 3-chloro-5-cyclobutoxy-4-(5-(3,5-dimethylisoxazol-4-yl)-1-(tetrahydro-2H-pyran-4-yl)-1H-pyrrolo[2,3-b]pyridin-3-yl)benzoic acid]", "IC50": "1 to 8"}
{"smiles": "Cc1noc(C)c1-c1cnc2c(c1)c(-c1c(Cl)cc(C(=O)O)cc1OCC(F)F)cn2C1CCOCC1", "note": "[P-0359, 3-chloro-5-(2,2-difluoroethoxy)-4-(5-(3,5-dimethylisoxazol-4-yl)-1-(tetrahydro-2H-pyran-4-yl)-1H-pyrrolo[2,3-b]pyridin-3-yl)benzoic acid]", "IC50": "8 to 1000"}
{"smiles": "CCOc1cc(C(=O)O)c(F)cc1-c1cn([C@H]2CCOC2)c2ncc(-c3c(C)noc3C)cc12", "note": "[P-0360, (S)-4-(5-(3,5-dimethylisoxazol-4-yl)-1-(tetrahydrofuran-3-yl)-1H-pyrrolo[2,3-b]pyridin-3-yl)-5-ethoxy-2-fluorobenzoic acid]", "IC50": "8 to 1000"}
{"smiles": "Cc1noc(C)c1-c1cnc2c(c1)c(-c1c(Cl)cc(C(=O)O)cc1OC1CCC1)cn2[C@H]1CCOC1", "note": "[P-0361, (S)-3-chloro-5-cyclobutoxy-4-(5-(3,5-dimethylisoxazol-4-yl)-1-(tetrahydrofuran-3-yl)-1H-pyrrolo[2,3-b]pyridin-3-yl)benzoic acid]", "IC50": "8 to 1000"}
{"smiles": "COc1cc(C(=O)O)ncc1-c1cn(C2CCOCC2)c2ncc(-c3c(C)noc3C)cc12", "note": "[P-0362, 5-(5-(3,5-dimethylisoxazol-4-yl)-1-(tetrahydro-2H-pyran-4-yl)-1H-pyrrolo[2,3-b]pyridin-3-yl)-4-methoxypicolinic acid]", "IC50": "0.0001 to 1"}
{"smiles": "Cc1noc(C)c1-c1cnc2c(c1)c(-c1c(Cl)cc(C(=O)O)cc1OC1CC1)cn2C(C1CC1)C1CC1", "note": "[P-0363, 3-chloro-5-cyclopropoxy-4-(1-(dicyclopropylmethyl)-5-(3,5-dimethylisoxazol-4-yl)-1H-pyrrolo[2,3-b]pyridin-3-yl)benzoic acid]", "IC50": "1 to 8"}
{"smiles": "Cc1noc(C)c1-c1cnc2c(c1)c(-c1ccc(C(=O)O)cc1OC(F)(F)F)cn2CC1(C#N)CCC1", "note": "[P-0364, 4-(1-((1-cyanocyclobutyl)methyl)-5-(3,5-dimethylisoxazol-4-yl)-1H-pyrrolo[2,3-b]pyridin-3-yl)-3-(trifluoromethoxy)benzoic acid]", "IC50": "1 to 8"}
{"smiles": "Cc1nn(CC(C)(C)O)cc1-n1cc(-c2ccc(C(=O)O)cc2OC(F)(F)F)c2cc(-c3c(C)noc3C)cnc21", "note": "[P-0365, 4-(5-(3,5-dimethylisoxazol-4-yl)-1-(1-(2-hydroxy-2-methylpropyl)-3-methyl-1H-pyrazol-4-yl)-1H-pyrrolo[2,3-b]pyridin-3-yl)-3-(trifluoromethoxy)benzoic acid]", "IC50": "1 to 8"}
{"smiles": "Cc1nn(CC(=O)N(C)C)cc1-n1cc(-c2ccc(C(=O)O)cc2OC(F)(F)F)c2cc(-c3c(C)noc3C)cnc21", "note": "[P-0366, 4-(1-(1-(2-(dimethylamino)-2-oxoethyl)-3-methyl-1H-pyrazol-4-yl)-5-(3,5-dimethylisoxazol-4-yl)-1H-pyrrolo[2,3-b]pyridin-3-yl)-3-(trifluoromethoxy)benzoic acid]", "IC50": "8 to 1000"}
{"smiles": "Cc1cc(C(=O)O)cc(OCC(F)F)c1-c1cn(C2CCOCC2)c2ncc(-c3c(C)noc3C)cc12", "note": "[P-0367, 3-(2,2-difluoroethoxy)-4-(5-(3,5-dimethylisoxazol-4-yl)-1-(tetrahydro-2H-pyran-4-yl)-1H-pyrrolo[2,3-b]pyridin-3-yl)-5-methylbenzoic acid]", "IC50": "1 to 8"}
{"smiles": "COc1nc(C(=O)O)ccc1-c1cn(C2CCOCC2)c2ncc(-c3c(C)noc3C)cc12", "note": "[P-0368, 5-(5-(3,5-dimethylisoxazol-4-yl)-1-(tetrahydro-2H-pyran-4-yl)-1H-pyrrolo[2,3-b]pyridin-3-yl)-6-methoxypicolinic acid]", "IC50": "8 to 1000"}
{"smiles": "Cc1noc(C)c1-c1cnc2c(c1)c(-c1c(F)cc(C(=O)O)cc1OC(C)C)cn2C(C1CC1)C1CC1", "note": "[P-0369, 4-(1-(dicyclopropylmethyl)-5-(3,5-dimethylisoxazol-4-yl)-1H-pyrrolo[2,3-b]pyridin-3-yl)-3-fluoro-5-isopropoxybenzoic acid]", "IC50": "1 to 8"}
{"smiles": "CCOc1cc(C(=O)O)cc(Cl)c1-c1cn(C(C2CC2)C2CC2)c2ncc(-c3c(C)noc3C)cc12", "note": "[P-0370, 3-chloro-4-(1-(dicyclopropylmethyl)-5-(3,5-dimethylisoxazol-4-yl)-1H-pyrrolo[2,3-b]pyridin-3-yl)-5-ethoxybenzoic acid]", "IC50": "1 to 8"}
{"smiles": "CCOc1cc(C(=O)O)cc(Cl)c1-c1cn(C2CCOCC2)c2ncc(-c3c(C)noc3C)cc12", "note": "[P-0371, 3-chloro-4-(5-(3,5-dimethylisoxazol-4-yl)-1-(tetrahydro-2H-pyran-4-yl)-1H-pyrrolo[2,3-b]pyridin-3-yl)-5-ethoxybenzoic acid]", "IC50": "1 to 8"}
{"smiles": "Cc1noc(C)c1-c1cnc2c(c1)c(-c1c(Cl)cc(C(=O)O)cc1OC(C)C)cn2C1CCOCC1", "note": "[P-0372, 3-chloro-4-(5-(3,5-dimethylisoxazol-4-yl)-1-(tetrahydro-2H-pyran-4-yl)-1H-pyrrolo[2,3-b]pyridin-3-yl)-5-isopropoxybenzoic acid]", "IC50": "1 to 8"}
{"smiles": "CCOc1cc(C(=O)O)nc(OCC)c1-c1cn(C2CCOCC2)c2ncc(-c3c(C)noc3C)cc12", "note": "[P-0373, 5-(5-(3,5-dimethylisoxazol-4-yl)-1-(tetrahydro-2H-pyran-4-yl)-1H-pyrrolo[2,3-b]pyridin-3-yl)-4,6-diethoxypicolinic acid]", "IC50": "8 to 1000"}
{"smiles": "CCOc1cc(C(=O)O)c(F)c(OCC)c1-c1cn(C2CCOCC2)c2ncc(-c3c(C)noc3C)cc12", "note": "[P-0374, 4-(5-(3,5-dimethylisoxazol-4-yl)-1-(tetrahydro-2H-pyran-4-yl)-1H-pyrrolo[2,3-b]pyridin-3-yl)-3,5-diethoxy-2-fluorobenzoic acid]", "IC50": "8 to 1000"}
{"smiles": "CCOc1cc(C(=O)O)c(F)cc1-c1cn(C2CCOCC2)c2ncc(-c3c(C)noc3C)cc12", "note": "[P-0375, 4-(5-(3,5-dimethylisoxazol-4-yl)-1-(tetrahydro-2H-pyran-4-yl)-1H-pyrrolo[2,3-b]pyridin-3-yl)-5-ethoxy-2-fluorobenzoic acid]", "IC50": "8 to 1000"}
{"smiles": "CCOc1nc(C(=O)O)ccc1-c1cn(C2CCOCC2)c2ncc(-c3c(C)noc3C)cc12", "note": "[P-0376, 5-(5-(3,5-dimethylisoxazol-4-yl)-1-(tetrahydro-2H-pyran-4-yl)-1H-pyrrolo[2,3-b]pyridin-3-yl)-6-ethoxypicolinic acid]", "IC50": "8 to 1000"}
{"smiles": "CCOc1cc(C(=O)O)c(F)cc1-c1cn(-c2ccccc2F)c2ncc(-c3c(C)noc3C)cc12", "note": "[P-0377, 4-(5-(3,5-dimethylisoxazol-4-yl)-1-(2-fluorophenyl)-1H-pyrrolo[2,3-b]pyridin-3-yl)-5-ethoxy-2-fluorobenzoic acid]", "IC50": "1 to 8"}
{"smiles": "Cc1noc(C)c1-c1cnc2c(c1)c(-c1ccc(C(=O)O)cc1OC(F)(F)F)cn2C1CCC1", "note": "[P-0378, 4-(1-cyclobutyl-5-(3,5-dimethylisoxazol-4-yl)-1H-pyrrolo[2,3-b]pyridin-3-yl)-3-(trifluoromethoxy)benzoic acid]", "IC50": "0.0001 to 1"}
{"smiles": "Cc1noc(C)c1-c1cnc2c(c1)c(-c1ccc(C(=O)O)cc1OC1CC1)cn2C1CCOCC1", "note": "[P-0379, 3-cyclopropoxy-4-(5-(3,5-dimethylisoxazol-4-yl)-1-(tetrahydro-2H-pyran-4-yl)-1H-pyrrolo[2,3-b]pyridin-3-yl)benzoic acid]", "IC50": "8 to 1000"}
